Values quoted from earlier work in patent US20190187141A1, “Biomarkers for Detection and Treatment of Mast Cell Activity-Associated Disorders” (Arete Discoveries, Inc., priority 2016, published 2019).
Counter-ions that a name gives are not always drawn.

Experiments:
cultured mast cells = conditions: pannexin1 hemichannel dependent mechanism
mast cells [1] = conditions: AD animal models; connexin 43 and pannexin1 hemichannel dependent
mast cells [2] = conditions: in vitro
[3] = open label, 20 MS patients
mast cells [4] = tested on: mast cells
[5] = phase II study
[6] = phase II trial, 35 progressive MS patients
[7] = tested on: lymphocytes, macrophages, mast cells and dendritic cells

Amyloid beta (Aβ) peptide 25-35 (GSNKGAIIGLM; Amyloid-beta protein 42; UniProt P05067 696-706, looked up, fragment) [amyloid beta peptide fragment 25-35]
degranulation of cultured mast cells (cultured mast cells): causes rapid degranulation of cultured mast cells | mast cell dye uptake and histamine release (mast cells [1]): promotes both connexin 43 and pannexinl hemichannel dependent mast cell dye uptake and histamine release

COC(=O)/C=C/C(=O)OC [dimethyl fumarate]
apoptosis of mast cells (mast cells [2]): induces apoptosis of mast cells in vitro

OCCOCCN1CCN(C(c2ccccc2)c2ccc(Cl)cc2)CC1 (centres unmarked) [hydroxyzine]
degranulation of mast cells within the thalamus (EAE; EAE): inhibit | progression and severity of EAE (EAE; in vivo): inhibit the progression and severity of EAE | neurological outcome in MS patients [3]: stability or improvement neurologically

Cc1ccc(NC(=O)c2ccc(CN3CCN(C)CC3)cc2)cc1Nc1nc(-c2cccnc2)cs1 [masitinib]
inhibition of survival, migration and activity of mast cells (mast cells [4]): effectively inhibits the survival, migration and activity of mast cells | cognitive decline in AD patients [5]: some benefit in slowing cognitive decline | efficacy in progressive MS [6]: some efficacy

Cc1ccc(NC(=O)c2ccc(CN3CCN(C)CC3)cc2)cc1Nc1nccc(-c2cccnc2)n1 [Imatinib]
secretion of pro-inflammatory cytokines IFN-γ, TNF-α, IL-1β and IL-17 and MMPs [7]: inhibiting | anti-proliferative activity and immunomodulatory effects ([7]; lymphocytes, macrophages, mast cells and dendritic cells): exerts anti-proliferative activity and immunomodulatory effects
